The target in assay [1] is Phosphatidylinositol 4,5-bisphosphate 3-kinase catalytic subunit alpha isoform (Homo sapiens, UniProt P42336).
Assay [2] deals with Phosphatidylinositol 4,5-bisphosphate 3-kinase catalytic subunit gamma isoform (Homo sapiens, UniProt P48736).
Assay [3] deals with T1, Phosphatidylinositol 4,5-bisphosphate 3-kinase catalytic subunit delta isoform (Homo sapiens, UniProt O00329).
T1 sequence (O00329 whole entry): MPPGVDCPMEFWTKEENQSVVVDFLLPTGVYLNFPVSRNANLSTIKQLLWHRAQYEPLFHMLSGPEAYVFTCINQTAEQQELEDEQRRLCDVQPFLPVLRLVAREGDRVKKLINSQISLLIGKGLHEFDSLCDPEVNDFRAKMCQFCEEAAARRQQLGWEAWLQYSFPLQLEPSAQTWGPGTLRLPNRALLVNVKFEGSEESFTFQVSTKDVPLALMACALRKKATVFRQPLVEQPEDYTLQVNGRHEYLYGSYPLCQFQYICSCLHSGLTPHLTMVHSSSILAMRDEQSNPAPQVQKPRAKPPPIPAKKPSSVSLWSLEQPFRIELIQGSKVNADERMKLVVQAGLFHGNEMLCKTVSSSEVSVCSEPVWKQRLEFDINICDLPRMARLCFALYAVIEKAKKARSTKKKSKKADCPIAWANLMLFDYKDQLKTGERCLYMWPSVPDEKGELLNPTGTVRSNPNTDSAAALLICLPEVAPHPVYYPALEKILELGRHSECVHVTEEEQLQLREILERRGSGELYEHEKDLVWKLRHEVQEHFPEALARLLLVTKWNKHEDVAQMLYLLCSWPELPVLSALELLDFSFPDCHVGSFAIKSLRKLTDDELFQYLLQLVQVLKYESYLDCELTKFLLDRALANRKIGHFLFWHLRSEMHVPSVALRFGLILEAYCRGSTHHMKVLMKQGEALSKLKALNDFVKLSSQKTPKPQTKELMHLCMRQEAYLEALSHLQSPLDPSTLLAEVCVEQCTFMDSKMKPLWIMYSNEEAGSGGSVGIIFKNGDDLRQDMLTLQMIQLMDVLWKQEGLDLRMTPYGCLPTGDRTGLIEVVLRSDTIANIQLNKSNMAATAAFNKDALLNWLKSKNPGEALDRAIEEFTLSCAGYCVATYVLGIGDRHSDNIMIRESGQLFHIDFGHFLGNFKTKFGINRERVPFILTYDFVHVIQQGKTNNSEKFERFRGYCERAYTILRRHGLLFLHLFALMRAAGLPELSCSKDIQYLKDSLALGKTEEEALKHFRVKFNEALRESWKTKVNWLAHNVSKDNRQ

Assay [4] concerns the target T2, Serine/threonine-protein kinase mTOR (Homo sapiens, UniProt P42345).
In assay [5] the target is Phosphatidylinositol 4,5-bisphosphate 3-kinase catalytic subunit beta isoform (Homo sapiens, UniProt P42338).
Assay [6] concerns the target T2, Serine/threonine-protein kinase mTOR. This is another data set of the same source.
Description: Inhibition of mTOR in human U-87 cells assessed as inhibition of phosphorylation of AKT at S473
The target is the same in assay [7]. This is another data set of the same source.

Phosphatidylinositol 4,5-bisphosphate 3-kinase catalytic subunit alpha isoform, sequence (P42336 whole entry, canonical isoform): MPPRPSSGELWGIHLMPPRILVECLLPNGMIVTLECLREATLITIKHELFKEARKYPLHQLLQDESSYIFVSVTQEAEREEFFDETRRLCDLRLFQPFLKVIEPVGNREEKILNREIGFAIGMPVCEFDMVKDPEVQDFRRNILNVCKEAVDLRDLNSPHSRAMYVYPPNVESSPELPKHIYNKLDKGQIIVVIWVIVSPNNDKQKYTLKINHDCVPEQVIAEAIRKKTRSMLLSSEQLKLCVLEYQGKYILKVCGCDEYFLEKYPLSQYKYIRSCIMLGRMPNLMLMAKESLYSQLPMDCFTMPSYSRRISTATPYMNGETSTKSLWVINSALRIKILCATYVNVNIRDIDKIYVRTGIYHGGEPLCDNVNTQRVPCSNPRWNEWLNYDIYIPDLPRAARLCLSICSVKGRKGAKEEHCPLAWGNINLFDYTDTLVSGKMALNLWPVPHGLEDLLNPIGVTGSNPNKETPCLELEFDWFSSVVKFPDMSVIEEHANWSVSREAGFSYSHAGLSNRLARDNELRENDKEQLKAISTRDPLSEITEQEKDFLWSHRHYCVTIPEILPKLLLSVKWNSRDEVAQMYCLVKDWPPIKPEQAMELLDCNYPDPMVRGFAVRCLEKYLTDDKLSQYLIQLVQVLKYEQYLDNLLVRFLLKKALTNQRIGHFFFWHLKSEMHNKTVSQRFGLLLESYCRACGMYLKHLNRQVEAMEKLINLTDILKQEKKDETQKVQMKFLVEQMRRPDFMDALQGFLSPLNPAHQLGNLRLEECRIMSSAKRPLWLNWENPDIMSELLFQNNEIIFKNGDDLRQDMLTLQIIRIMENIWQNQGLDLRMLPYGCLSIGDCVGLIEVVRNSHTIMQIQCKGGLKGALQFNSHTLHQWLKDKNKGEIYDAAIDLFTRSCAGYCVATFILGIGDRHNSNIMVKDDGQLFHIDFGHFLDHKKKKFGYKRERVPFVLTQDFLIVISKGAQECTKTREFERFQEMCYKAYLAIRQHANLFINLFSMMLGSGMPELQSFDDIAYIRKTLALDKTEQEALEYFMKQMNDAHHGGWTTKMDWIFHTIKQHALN
Phosphatidylinositol 4,5-bisphosphate 3-kinase catalytic subunit gamma isoform, sequence (P48736 whole entry, canonical isoform): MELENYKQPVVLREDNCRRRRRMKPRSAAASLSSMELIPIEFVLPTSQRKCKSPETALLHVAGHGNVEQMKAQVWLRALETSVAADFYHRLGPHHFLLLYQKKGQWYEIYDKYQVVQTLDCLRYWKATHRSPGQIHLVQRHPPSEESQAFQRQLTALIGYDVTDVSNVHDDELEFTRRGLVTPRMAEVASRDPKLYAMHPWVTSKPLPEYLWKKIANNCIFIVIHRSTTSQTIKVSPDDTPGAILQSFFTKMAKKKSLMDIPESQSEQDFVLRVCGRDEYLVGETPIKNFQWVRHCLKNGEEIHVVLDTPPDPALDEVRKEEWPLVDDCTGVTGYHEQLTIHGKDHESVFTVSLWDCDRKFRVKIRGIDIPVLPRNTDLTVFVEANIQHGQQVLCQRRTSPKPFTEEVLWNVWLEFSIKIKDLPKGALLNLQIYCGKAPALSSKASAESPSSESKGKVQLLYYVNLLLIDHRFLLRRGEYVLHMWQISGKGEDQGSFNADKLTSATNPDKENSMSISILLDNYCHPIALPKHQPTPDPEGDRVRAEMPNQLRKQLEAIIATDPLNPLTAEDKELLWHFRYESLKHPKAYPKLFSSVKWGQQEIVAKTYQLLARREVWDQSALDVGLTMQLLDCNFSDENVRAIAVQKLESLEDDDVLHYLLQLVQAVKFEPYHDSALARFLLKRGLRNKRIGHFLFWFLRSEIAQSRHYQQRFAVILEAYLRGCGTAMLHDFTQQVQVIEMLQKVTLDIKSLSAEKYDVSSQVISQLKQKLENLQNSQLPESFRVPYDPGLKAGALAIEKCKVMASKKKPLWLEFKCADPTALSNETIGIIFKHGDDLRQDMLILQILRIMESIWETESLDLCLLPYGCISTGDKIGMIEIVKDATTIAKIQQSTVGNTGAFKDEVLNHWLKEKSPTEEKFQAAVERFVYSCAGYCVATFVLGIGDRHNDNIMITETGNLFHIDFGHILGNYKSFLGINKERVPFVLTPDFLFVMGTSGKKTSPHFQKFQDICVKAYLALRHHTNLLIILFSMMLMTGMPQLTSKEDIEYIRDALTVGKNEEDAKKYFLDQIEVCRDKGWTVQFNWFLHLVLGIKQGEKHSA
Phosphatidylinositol 4,5-bisphosphate 3-kinase catalytic subunit beta isoform, sequence (P42338 whole entry, canonical isoform): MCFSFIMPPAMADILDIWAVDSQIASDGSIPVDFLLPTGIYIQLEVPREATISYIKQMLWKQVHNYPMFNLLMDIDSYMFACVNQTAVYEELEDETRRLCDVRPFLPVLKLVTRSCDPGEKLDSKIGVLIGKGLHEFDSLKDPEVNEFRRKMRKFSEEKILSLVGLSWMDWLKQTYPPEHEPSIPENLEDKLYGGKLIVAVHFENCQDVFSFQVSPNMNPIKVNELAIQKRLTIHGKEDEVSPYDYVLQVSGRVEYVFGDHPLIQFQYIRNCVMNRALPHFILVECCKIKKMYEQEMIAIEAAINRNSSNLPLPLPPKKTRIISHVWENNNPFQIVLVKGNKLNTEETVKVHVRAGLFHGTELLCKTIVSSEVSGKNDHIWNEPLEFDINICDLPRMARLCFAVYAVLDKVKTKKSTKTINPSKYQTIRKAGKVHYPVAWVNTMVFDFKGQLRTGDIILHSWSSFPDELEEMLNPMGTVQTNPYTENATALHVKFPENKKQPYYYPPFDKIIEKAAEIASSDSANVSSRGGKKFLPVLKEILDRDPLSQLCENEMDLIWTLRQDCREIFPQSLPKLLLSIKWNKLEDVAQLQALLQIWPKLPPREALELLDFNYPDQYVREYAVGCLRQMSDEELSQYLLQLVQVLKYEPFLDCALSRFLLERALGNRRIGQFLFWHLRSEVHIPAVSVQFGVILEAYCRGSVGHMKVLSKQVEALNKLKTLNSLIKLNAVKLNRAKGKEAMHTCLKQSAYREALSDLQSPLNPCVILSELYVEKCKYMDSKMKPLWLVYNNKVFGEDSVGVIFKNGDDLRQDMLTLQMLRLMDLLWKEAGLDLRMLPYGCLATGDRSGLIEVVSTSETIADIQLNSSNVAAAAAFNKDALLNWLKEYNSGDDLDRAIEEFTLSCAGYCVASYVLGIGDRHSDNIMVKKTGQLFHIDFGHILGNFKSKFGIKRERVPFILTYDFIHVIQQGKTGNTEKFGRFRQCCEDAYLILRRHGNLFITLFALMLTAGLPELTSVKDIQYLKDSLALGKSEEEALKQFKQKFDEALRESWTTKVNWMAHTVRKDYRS

Take `CNC(=O)Nc1ccc(Nc2nc3ccccc3n2-c2nc(C)nc(N)n2)cc1`: the half-maximal inhibitory concentration (IC50) (usually the midpoint of a concentration-inhibition curve) in assay [1] turned out to be 6 nM; in assay [2], 13 nM; in assay [3], 11 nM; in assay [4], 340 nM; in assay [5], 17 nM; in assay [6], 11 nM. Also, the IC50 in assay [7] is 2 nM.

With `Cc1nccc(-n2c(Nc3cccc(O)c3)nc3ccccc32)n1`, the IC50 in assay [1] came out at 370 nM; in assay [4], 8900 nM; in assay [6], 600 nM; in assay [7] it was 370 nM.

`Cc1nc(N)nc(-n2c(NC3CCOCC3)nc3ccccc32)n1`: the IC50 in assay [1] was 1600 nM; in assay [2] it was 30 nM; in assay [3], 710 nM; in assay [4], over 25000 nM; in assay [5] it was 2400 nM; in assay [6], 680 nM. The same molecule had an IC50 in assay [7] of 21400 nM.

For the molecule `C#CCNc1nc(C)nc(-n2c(Nc3ccn[nH]3)nc3ccccc32)n1`, the IC50 is 4000 nM in assay [1]; 3700 nM in assay [2]; 4600 nM in assay [3]; 1400 nM in assay [4]; 3700 nM in assay [5]; 150 nM in assay [6]. The molecule further displayed an IC50 in assay [7] of 80 nM.

In the case of `Oc1cccc(Nc2nc3ccccc3n2-c2ncnc(NCc3ccccn3)n2)c1`, the IC50 is 3600 nM in assay [1], over 25000 nM in assay [4], 2400 nM in assay [6] and 21000 nM in assay [7].

As to `Cc1nc(N)nc(-n2c(Nc3ccnn3C)nc3ccccc32)n1`, the IC50 in assay [1] is 1900 nM; in assay [2], 2300 nM; in assay [3], 3300 nM; in assay [4] it was over 25000 nM; in assay [5], 6900 nM; in assay [6], 540 nM. The IC50 in assay [7] was over 50000 nM.

For `Cc1nc(N)nc(-n2c(Nc3nc[nH]n3)nc3ccccc32)n1`, the IC50 in assay [4] is over 25000 nM; in assay [6], 4600 nM; in assay [7], 33100 nM.

On to `Cc1nc(N)nc(-n2c(Nc3ccc4cc[nH]c4c3)nc3ccccc32)n1`, for which the IC50 was determined as 230 nM in assay [1]; 340 nM in assay [2]; 240 nM in assay [3]; 960 nM in assay [4]; 1000 nM in assay [5]; 140 nM in assay [6]. Moreover, half-maximal inhibition in assay [7] (IC50) was put at 28 nM.

In the case of `CNC(=O)c1ccc(Nc2nc3ccccc3n2-c2nc(C)nc(N)n2)o1`, the IC50 in assay [1] was 520 nM; in assay [2], 26 nM; in assay [3], 140 nM; in assay [4] it was over 25000 nM; in assay [5] it was 1800 nM; in assay [6], 680 nM. The half-inhibitory concentration (IC50) in assay [7] came out at 150 nM.

`Oc1cccc(Nc2nc3ccccc3n2-c2ncnc(NCC(F)(F)F)n2)c1`: the IC50 in assay [1] is 3600 nM; in assay [4] it was over 25000 nM; in assay [6], 3200 nM; in assay [7], over 50000 nM.

As to `CCc1nc(N)nc(-n2c(Nc3cccc(O)c3)nc3ccccc32)n1`, the IC50 in assay [1] came to 340 nM; in assay [4], 6300 nM; in assay [6], 410 nM; in assay [7] it was 390 nM.

With `Cc1nc(N)nc(-n2c(Nc3ccn(C)n3)nc3ccccc32)n1`, the IC50 in assay [1] was 6200 nM; in assay [2], 4100 nM; in assay [3], 4600 nM; in assay [4], 5300 nM; in assay [5] it was 28800 nM; in assay [6], 580 nM. The IC50 in assay [7] came to 270 nM.

Take `Cc1nc(N)nc(-n2c(Nc3cc(O)cc(O)c3)nc3ccccc32)n1`: the IC50 in assay [1] turned out to be 0.6 nM; in assay [2], 5 nM; in assay [3], 0.4 nM; in assay [4], 97 nM; in assay [5], 0.2 nM; in assay [6], 5 nM. The molecule also had an IC50 in assay [7] of 0.2 nM.

As to `Cc1nc(N)nc(-n2c(Nc3ccc4cn[nH]c4c3)nc3ccccc32)n1`, the IC50 worked out at 200 nM in assay [1]; 200 nM in assay [2]; 320 nM in assay [3]; 1500 nM in assay [4]; 630 nM in assay [5]; 120 nM in assay [6]. The molecule further gave an IC50 in assay [7] of 27 nM.

With `COc1ncnc(-n2c(Nc3cccc(O)c3)nc3ccccc32)n1`, the IC50 in assay [1] was 1700 nM; in assay [4], over 25000 nM; in assay [6], 1900 nM; in assay [7], over 50000 nM.

Take `Oc1cccc(Nc2nc3ccccc3n2-c2ncnc(Nc3ccccc3)n2)c1`: the IC50 in assay [1] is 720 nM; in assay [4], over 25000 nM; in assay [6], 870 nM; in assay [7], 2300 nM.

On to `Cc1nc(N)cc(-n2c(Nc3cccc(O)c3)nc3ccccc32)n1`, for which the IC50 came to 42 nM in assay [1], 1200 nM in assay [4], 43 nM in assay [6] and 87 nM in assay [7].

In the case of `Cc1nc(N)nc(-n2c(Nc3cn[nH]c3)nc3ccccc32)n1`, the IC50 in assay [1] is 460 nM; in assay [2], 610 nM; in assay [3], 690 nM; in assay [4], 5300 nM; in assay [5], 1000 nM; in assay [6], 180 nM. The molecule also gave an IC50 in assay [7] of 190 nM.

With `Cc1nc(N)nc(-n2c(Nc3cccc(C(N)=O)c3)nc3ccccc32)n1`, the IC50 in assay [1] amounted to 290 nM; in assay [2], 480 nM; in assay [3], 40 nM; in assay [4], 3900 nM; in assay [5], 1030 nM; in assay [6], 190 nM. The IC50 in assay [7] was 175 nM.

As for `Nc1ncnc(-n2c(Nc3cccc(O)c3)nc3ccccc32)n1`, the IC50 in assay [1] turned out to be 130 nM; in assay [4], 710 nM; in assay [6], 34 nM; in assay [7], 21 nM.

On to `CNc1ncnc(-n2c(Nc3cccc(O)c3)nc3ccccc32)n1`, for which the IC50 in assay [1] worked out at 190 nM; in assay [4], 2900 nM; in assay [6], 180 nM; in assay [7] it was 250 nM.

For the molecule `CCCc1nc(N)nc(-n2c(Nc3cccc(O)c3)nc3ccccc32)n1`, the IC50 was 3500 nM in assay [1], over 25000 nM in assay [4], 2640 nM in assay [6] and 4700 nM in assay [7].

Consider `Cc1nc(N)nc(-n2c(Nc3n[nH]c4ccccc34)nc3ccccc32)n1`, for which the IC50 in assay [1] turned out to be 960 nM; in assay [2] it was 190 nM; in assay [3] it was 270 nM; in assay [4], 4200 nM; in assay [5], 420 nM; in assay [6], 250 nM. The IC50 in assay [7] came to 60 nM.

With `Cc1nc(N)nc(-n2c(Nc3ccccc3)nc3ccccc32)n1`, the IC50 is 260 nM in assay [1]; 470 nM in assay [2]; 360 nM in assay [3]; over 25000 nM in assay [4]; 1000 nM in assay [5]; 190 nM in assay [6]. In assay [7], 420 nM corresponded to half-maximal inhibition (IC50).

For `Cc1nc(N)nc(-n2c(Nc3ccn(C(F)F)n3)nc3ccccc32)n1`, the IC50 worked out at 10400 nM in assay [1]; 860 nM in assay [2]; 530 nM in assay [3]; 6500 nM in assay [4]; 22300 nM in assay [5]; 770 nM in assay [6]. In assay [7], 340 nM corresponded to half-maximal inhibition (IC50).

Consider `CC(=O)Nc1cccc(Nc2nc3ccccc3n2-c2nc(C)nc(N)n2)c1`, for which the IC50 in assay [1] came to 630 nM; in assay [2] it was 110 nM; in assay [3], 890 nM; in assay [4], 1500 nM; in assay [5], 1400 nM; in assay [6] it was 120 nM. For the same molecule, the IC50 in assay [7] came to 290 nM.

Regarding `Cc1nc(NCC#N)nc(-n2c(Nc3cccc(O)c3)nc3ccccc32)n1`, the IC50 in assay [1] was 32 nM; in assay [4] it was 380 nM; in assay [6], 17 nM; in assay [7] it was 8 nM.

With `Oc1cccc(Nc2nc3ccccc3n2-c2ncncn2)c1`, the concentration for half-maximal inhibition (IC50) in assay [1] is 2000 nM; in assay [4], over 25000 nM; in assay [6] it was 1600 nM; in assay [7], 3000 nM.

For the molecule `COc1nc(NCC#N)nc(-n2c(Nc3cccc(O)c3)nc3ccccc32)n1`, the IC50 was 520 nM in assay [1], 21500 nM in assay [4], 2100 nM in assay [6] and over 50000 nM in assay [7].

`Nc1cc(-n2c(Nc3cccc(O)c3)nc3ccccc32)ncn1`: the IC50 worked out at 1000 nM in assay [1], 3500 nM in assay [4], 420 nM in assay [6] and 110 nM in assay [7].

Values taken from ChEMBL document CHEMBL1759974, “Discovery of triazine-benzimidazoles as selective inhibitors of mTOR” (Bioorg Med Chem Lett, 2011).
